# Measurements: US8486948B2, “Piperazinodihydrothienopyrimidine derivatives” (Boehringer Ingelheim International GmbH, priority 2007, dated 2013)
# Where a name gives a salt, the structure may show the parent alone.
# Target: PDE4B (Homo sapiens, UniProt Q07343)
# Assay: Scintillation Proximity (SPA) assay, inhibition of PDE4B at 1 μM
# Type: biochemical
# Conditions: test substance 1 μM, one hour incubation with [H3]-cAMP at 30° C.
# Procedure: The inhibitions (in %) at 1 μM of the individual Example substances are included in the following Tables of Examples and were determined as follows:
# The Scintilation Proximity (SPA) Assays (GE Healthcare, No. TRKQ7090) make use of the different affinities of cyclic 3″-5″-adenosine monophosphate (cAMP, low affinity) and linear 5′-adenosine monophosphate (AMP, high affinity) for yttrium silicate scintillator beads. The cAMP specific phosphodiesterase (PDE) PDE4B cleaves the 3′-phosphoester bond of the tritium-labelled [H3]-cAMP to form the [H3]-5′-AMP. Because of its higher affinity for the scintillator beads this [H3]-AMP accumulates on the beads and causes scintillation events (flashes of light) which are measured in a Wallac Microbeta Scintillation Counter.
# The test starts with one hour's incubation of [H3]-cAMP with the PDE4B enzyme in assay buffer at 30° C., once with the Example substance that is to be tested (in a concentration of 1 μM) and once without the Example substance that is to be tested. After this incubation the reaction is stopped by the addition of the beads. The beads are given an opportunity to settle over the next 45 minutes, then they are measured in the Scintillation Counter. If the substance is capable of inhibiting the enzymatic activity of the PDE4B, less [H3]-AMP is formed during the incubation phase and fewer scintillation events can be measured.
# Sequence of PDE4B (Q07343 whole entry, species assumed): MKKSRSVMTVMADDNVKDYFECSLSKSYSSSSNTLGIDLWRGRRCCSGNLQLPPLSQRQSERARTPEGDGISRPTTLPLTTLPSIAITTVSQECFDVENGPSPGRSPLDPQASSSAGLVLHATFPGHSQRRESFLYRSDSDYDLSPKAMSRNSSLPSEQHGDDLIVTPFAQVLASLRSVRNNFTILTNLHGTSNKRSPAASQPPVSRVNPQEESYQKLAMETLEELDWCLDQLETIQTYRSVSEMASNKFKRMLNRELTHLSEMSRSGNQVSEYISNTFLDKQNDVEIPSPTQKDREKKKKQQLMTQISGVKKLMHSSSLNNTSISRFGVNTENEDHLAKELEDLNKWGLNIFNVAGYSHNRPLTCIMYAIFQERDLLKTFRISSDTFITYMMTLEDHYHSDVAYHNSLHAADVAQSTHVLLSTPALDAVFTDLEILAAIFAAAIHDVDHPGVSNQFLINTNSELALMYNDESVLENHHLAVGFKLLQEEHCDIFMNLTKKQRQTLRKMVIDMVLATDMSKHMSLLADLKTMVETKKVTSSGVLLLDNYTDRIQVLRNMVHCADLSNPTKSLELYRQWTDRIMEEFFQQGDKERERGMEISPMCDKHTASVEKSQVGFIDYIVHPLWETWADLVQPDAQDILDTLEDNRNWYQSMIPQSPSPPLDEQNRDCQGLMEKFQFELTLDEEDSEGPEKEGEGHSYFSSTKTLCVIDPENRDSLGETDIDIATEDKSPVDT
Structure (SMILES),inhibition at 1 µM (Table A),inhibition at 1 µM (Table C),also measured
"CC(C)[C@H](CO)Nc1nc(N2CCN(c3ccc(Cl)cc3)C[C@H]2C)nc2c1[S+]([O-])CC2 (stereo partly drawn) [Example 1, (R)-2-{2-[(R)-4-(4-chlorophenyl)-2-methylpiperazin-1-yl]-5-oxo-6,7-dihydro-5H-5λ^4-thieno[3,2-d]pyrimidin-4-ylamino}-3-methylbutan-1-ol]",84%,,
CC(C)[C@H](CO)Nc1nc(N2CCN(c3ccc(Cl)cc3)C[C@@H]2C)nc2c1[S+]([O-])CC2 (stereo partly shown) [Example 2],94%,,
C[C@H]1CN(c2ccc(Cl)cc2)CCN1c1nc2c(c(N[C@H]3CCC(=O)N(C)C3)n1)[S+]([O-])CC2 (stereo partly shown) [Example 3],96%,,
C[C@H]1CN(c2ccc(Cl)cc2)CCN1c1nc2c(c(NC3CCOCC3)n1)[S+]([O-])CC2 (stereo partly shown) [Example 4],95%,,
C[C@H]1CN(c2ccc(Cl)cc2)CCN1c1nc2c(c(NC3(CO)CC3)n1)[S+]([O-])CC2 (stereo partly shown) [Example 5],95%,,
[O-][S+]1CCc2nc(N3CC4CC3CN4c3ccc(Cl)cc3)nc(NC3CCOCC3)c21 (stereo not shown) [Example 6],95%,,
[O-][S+]1CCc2nc(N3CC4CC3CN4c3ccc(Cl)cc3)nc(Nc3cccc(F)c3)c21 (stereo not shown) [Example 7],95%,,
[O-][S+]1CCc2nc(N3CC4CC3CN4c3ccc(Cl)cc3)nc(NC3(CO)CC3)c21 (stereo not shown) [Example 8],95%,,
"CN1C[C@@H](Nc2nc(N3C[C@H]4CC3CN4c3ccc(Cl)cc3)nc3c2[S+]([O-])CC3)CCC1=O (stereo partly drawn) [Example 9, (S)-5-{2-[5-(4-chlorophenyl)-2,5-diazabicyclo[2,2,1]hept-2-yl]-5-oxo-6,7-dihydro-5H-5λ^4-thieno[3,2-d]pyrimidin-4-ylamino}-1-methylpiperidin-2-one]",96%,,
C[C@H]1CN(c2ccc(Cl)cc2)CCN1c1nc2c(c(Nc3cccc(F)c3)n1)[S+]([O-])CC2 (stereo partly shown) [Example 10],94%,,
O=C1CN(c2nc3c(c(NC4(CO)CC4)n2)[S+]([O-])CC3)CCN1c1ccc(Br)cc1 (stereo not shown) [Example 11],90%,,
O=C1CN(c2nc3c(c(NC4CCOCC4)n2)[S+]([O-])CC3)CCN1c1ccc(Br)cc1 (stereo not shown) [Example 12],93%,,
O=C1CN(c2nc3c(c(NC4(CO)CC4)n2)[S+]([O-])CC3)CCN1c1cccc(Br)c1 (stereo not shown) [Example 13],19%,,
O=C1CN(c2nc3c(c(NC4CCOCC4)n2)[S+]([O-])CC3)CCN1c1cccc(Br)c1 (stereo not shown) [Example 14],92%,,
CC(C)[C@H](CO)Nc1nc(N2CCN(c3ccccc3)C(=O)C2)nc2c1[S+]([O-])CC2 (stereo partly shown) [Example 15],77%,,
O=C1CN(c2nc3c(c(NC4(CO)CC4)n2)[S+]([O-])CC3)CCN1c1ccccc1 (stereo not shown) [Example 16],86%,,
CN1C[C@@H](Nc2nc(N3CCN(c4ccccc4)C(=O)C3)nc3c2[S+]([O-])CC3)CCC1=O (stereo partly shown) [Example 17],96%,,
O=C1CN(c2nc3c(c(NC4CCOCC4)n2)[S+]([O-])CC3)CCN1c1ccccc1 (stereo not shown) [Example 18],93%,,
O=C1CN(c2nc3c(c(Nc4cccc(F)c4)n2)[S+]([O-])CC3)CCN1c1ccccc1 (stereo not shown) [Example 19],95%,,
[O-][S+]1CCc2nc(N3CC4CC3CN4c3ccc(Br)cc3)nc(NC3CCOCC3)c21 (stereo not shown) [Example 20],95%,,
"[O-][S+]1CCc2nc(N3C[C@H]4CC3CN4c3ccc(Br)cc3)nc(Nc3cccc(F)c3)c21 (stereo partly shown) [Example 21, {2-[5-(4-bromophenyl)-2,5-diazabicyclo[2,2,1]hept-2-yl]-5-oxo-6,7-dihydro-5H-5λ^4-thieno[3,2-d]pyrimidin-4-yl}-(3-fluorophenyl)-amine]",95%,,
[O-][S+]1CCc2nc(N3CC4CC3CN4c3ccc(Br)cc3)nc(NC3(CO)CC3)c21 (stereo not shown) [Example 22],95%,,
[O-][S+]1CCc2nc(N3CC4CC3CN4c3cccc(F)c3)nc(NC3(CO)CC3)c21 (stereo not shown) [Example 23],93%,,

Structure (SMILES),inhibition at 1 µM (Table A),inhibition at 1 µM (Table C),also measured
"[O-][S+]1CCc2nc(N3C[C@H]4CC3CN4c3ccc(F)cc3)nc(NC3(CO)CC3)c21 (stereo partly shown) [Example 24, (1-{2-[5-(4-fluorophenyl)-2,5-diazabicyclo[2,2,1]hept-2-yl]-5-oxo-6,7-dihydro-5H-5λ^4-thieno[3,2-d]pyrimidin-4-ylamino}-cyclopropyl)-methanol]",93%,,
[O-][S+]1CCc2nc(N3CC4CC3CN4c3cccc(F)c3)nc(NC3CCOCC3)c21 (stereo not shown) [Example 25],94%,,
[O-][S+]1CCc2nc(N3CC4CC3CN4c3ccc(F)cc3)nc(NC3CCOCC3)c21 (stereo not shown) [Example 26],94%,,
[O-][S+]1CCc2nc(N3C4CCC3CN(c3ccc(Br)cc3)C4)nc(NC3CCOCC3)c21 (stereo not shown) [Example 27],97%,,
"[O-][S+]1CCc2nc(N3C4CC[C@@H]3CN(c3ccc(Br)cc3)C4)nc(NC3(CO)CC3)c21 (stereo partly shown) [Example 28, (1-{2-[3-(4-bromophenyl)-3,8-diazabicyclo[3.2.1]oct-8-yl]-5-oxo-6,7-dihydro-5H-5λ^4-thieno[3,2-d]pyrimidin-4-ylamino}-cyclopropyl)-methanol trifluoroacetate]",97%,,
"[O-][S+]1CCc2nc(N3C[C@H]4CC3CN4c3nc4ccccc4o3)nc(NC3CCOCC3)c21 (stereo partly shown) [Example 29, [2-(5-benzoxazol-2-yl-2,5-diazabicyclo[2,2,1]hept-2-yl)-5-oxo-6,7-dihydro-5H-5λ^4-thieno[3,2-d]pyrimidin-4-yl]-(tetrahydropyran-4-yl)-amine]",97%,,
CCOC(=O)c1cn2c(n1)CN(c1nc3c(c(NC4(CO)CC4)n1)[S+]([O-])CC3)CC2 (stereo not shown) [Example 30],,95%,
[O-][S+]1CCc2nc(N3CCn4c(nnc4-c4ccc(F)cc4)C3)nc(NC3(CO)CC3)c21 (stereo not shown) [Example 31],,93%,
[O-][S+]1CCc2nc(N3CCn4c(Cc5ccc(Cl)c(Cl)c5)nnc4C3)nc(NC3(CO)CC3)c21 (stereo not shown) [Example 32],,91%,
"[O-][S+]1CCc2nc(N3CCn4cnnc4C3)nc(NC3(CO)CC3)c21 (stereo not shown) [Example 33, {1-[2-(5,6-DIHYDRO-8H-[1,2,4]TRIAZOLO[4,3-A]PYRAZIN-7-YL)-5-OXO-6,7-DIHYDRO-5H-5λ^4-THIENO[3,2-D]PYRIMIDIN-4-YLAMINO]-CYCLOPROPYL}-METHANOL TRIFLUORACETATE]",,75%,
CCOC(=O)c1cn2c(n1)CN(c1nc3c(c(NC4CCOCC4)n1)[S+]([O-])CC3)CC2 (stereo not shown) [Example 34],,95%,
[O-][S+]1CCc2nc(N3CCn4c(nnc4-c4ccc(F)cc4)C3)nc(NC3CCOCC3)c21 (stereo not shown) [Example 35],,94%,
[O-][S+]1CCc2nc(N3CCn4c(Cc5ccc(Cl)c(Cl)c5)nnc4C3)nc(NC3CCOCC3)c21 (stereo not shown) [Example 36],,93%,
"[O-][S+]1CCc2nc(N3CCn4cnnc4C3)nc(NC3CCOCC3)c21 (stereo not shown) [Example 37, [2-(5,6-DIHYDRO-8H-[1,2,4]TRIAZOLO[4,3-A]PYRAZIN-7-YL)-5-OXO-6,7-DIHYDRO-5H-5λ^4-THIENO[3,2-D]PYRIMIDIN-4-YL]-(TETRAHYDRO-PYRAN-4-YL)-AMINE TRIFLUOROACETATE]",,87%,
CCOC(=O)c1cn2c(n1)CN(c1nc3c(c(Nc4cccc(F)c4)n1)[S+]([O-])CC3)CC2 (stereo not shown) [Example 38],,95%,
"[O-][S+]1CCc2nc(N3CCn4c(nnc4-c4ccc(F)cc4)C3)nc(Nc3cccc(F)c3)c21 (stereo not shown) [Example 39, (3-fluorophenyl)-{2-[3-(4-fluorophenyl)-5,6-dihydro-8H-[1,2,4]triazolo[4,3-a]pyrazin-7-yl]-5-oxo-6,7-dihydro-5H-5λ^4-thieno[3,2-d]pyrimidin-4-yl}-amine]",,95%,
"[O-][S+]1CCc2nc(N3CCn4c(Cc5ccc(Cl)c(Cl)c5)nnc4C3)nc(Nc3cccc(F)c3)c21 (stereo not shown) [Example 40, {2-[3-(3,4-dichlorobenzyl)-5,6-dihydro-8H-[1,2,4]triazolo[4,3-a]pyrazin-7-yl]-5-oxo-6,7-dihydro-5H-5λ^4-thieno[3,2-d]pyrimidin-4-yl}-(3-fluorophenyl)-amine]",,94%,
"[O-][S+]1CCc2nc(N3CCn4cnnc4C3)nc(Nc3cccc(F)c3)c21 (stereo not shown) [Example 41, [2-(5,6-DIHYDRO-8H-[1,2,4]TRIAZOLO[4,3-A]PYRAZIN-7-YL)-5-OXO-6,7-DIHYDRO-5H-5λ^4-THIENO[3,2-D]PYRIMIDIN-4-YL]-(3-FLUOROPHENYL)-AMINE TRIFLUOROACETATE]",,90%,
CCOC(=O)c1cn2c(n1)CN(c1nc3c(c(N[C@@H](CO)C(C)C)n1)[S+]([O-])CC3)CC2 (stereo partly shown) [Example 42],,94%,
CC(C)[C@H](CO)Nc1nc(N2CCn3c(nnc3-c3ccc(F)cc3)C2)nc2c1[S+]([O-])CC2 (stereo partly shown) [Example 43],,88%,
CC(C)[C@H](CO)Nc1nc(N2CCn3c(Cc4ccc(Cl)c(Cl)c4)nnc3C2)nc2c1[S+]([O-])CC2 (stereo partly shown) [Example 44],,78%,
"CC(C)[C@H](CO)Nc1nc(N2CCn3cnnc3C2)nc2c1[S+]([O-])CC2 (stereo partly drawn) [Example 45, (R)-2-[2-(5,6-DIHYDRO-8H-[1,2,4]TRIAZOLO[4,3-A]PYRAZIN-7-YL)-5-OXO-6,7-DIHYDRO-5H-5λ^4-THIENO[3,2-D]PYRIMIDIN-4-YLAMINO]-3-METHYL-BUTAN-1-OL TRIFLUOROACETATE]",,55%,
CCOC(=O)c1cn2c(n1)CN(c1nc3c(c(N[C@H]4CCC(=O)N(C)C4)n1)[S+]([O-])CC3)CC2 (stereo partly shown) [Example 46],,,inhibition at 1 µM (Table D): 97%
